Source: patent US12077503B2, “Substituted cyclic amides and their use as herbicides” (FMC CORPORATION, priority 2015, dated 2024)

What was measured:
Type in all cases: in vivo
Kochia (Kochia scoparia) [1] = assay: Test A preemergence
Procedure, shortened: (§1)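 In a loam soil and sand blend, planted seeds got a preemergence directed soil spray, and young plants at the one- to two-leaf stage, 2–10 cm high, got a postemergence application; ~10 d greenhouse hold; injury rated visually, 0 = none, 100 = complete control.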

[2] = test system: barnyardgrass (Echinochloa crus-galli); assay: Test A preemergence
Procedure, shortened: as §1

[3] = test system: giant foxtail (Setaria faberii); assay: Test A preemergence
Procedure, shortened: as §1

[4] = test system: pigweed (Amaranthus retroflexus); assay: Test A preemergence
[5] = test system: ragweed (common ragweed, Ambrosia elatior); assay: Test A preemergence
Procedure, shortened: as §1

[6] = test system: ryegrass, Italian (Italian ryegrass, Lolium multiflorum); assay: Test A preemergence
Procedure, shortened: as §1

[7] = test system: Galium (catchweed bedstraw, Galium aparine); assay: Test A postemergence; settings: postemergence, 0 to 100 scale (0 no effect, 100 complete control)
Procedure, shortened: as §1

Kochia (Kochia scoparia) [8] = assay: Test A postemergence; settings: postemergence, 0 to 100 scale (0 no effect, 100 complete control)
Procedure, shortened: as §1

[9] = test system: barnyardgrass (Echinochloa crus-galli); assay: Test A postemergence
Procedure, shortened: as §1

[10] = test system: blackgrass (Alopecurus myosuroides); assay: Test A postemergence
Procedure, shortened: as §1

corn (Zea mays) = assay: Test A postemergence
Procedure, shortened: as §1

[11] = test system: giant foxtail (Setaria faberii); assay: Test A postemergence; settings: postemergence, 0 to 100 scale (0 no effect, 100 complete control)
Procedure, shortened: as §1

[12] = test system: pigweed (Amaranthus retroflexus); assay: Test A postemergence; settings: postemergence, 0 to 100 scale (0 no effect, 100 complete control)
Procedure, shortened: as §1

[13] = test system: ragweed (common ragweed, Ambrosia elatior); assay: Test A postemergence; settings: postemergence, 0 to 100 scale (0 no effect, 100 complete control)
Procedure, shortened: as §1

[14] = test system: ryegrass, Italian (Italian ryegrass, Lolium multiflorum); assay: Test A postemergence; settings: postemergence, 0 to 100 scale (0 no effect, 100 complete control)
Procedure, shortened: as §1

[15] = test system: wheat (Triticum aestivum); assay: Test A postemergence; settings: postemergence, 0 to 100 scale (0 no effect, 100 complete control)
Procedure, shortened: as §1

[16] = test system: barnyardgrass (Echinochloa crus-galli); assay: Test B flooded paddy test; settings: Flood, 250 g ai/ha; 0 to 100 scale where 0 is no effect and 100 is complete control; 13 to 15 d
Procedure, shortened: (§2)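 Evaluation by eye, against controls, occurred 13–15 d post-treatment in a greenhouse, using a 0 (no effect) to 100 (complete control) scale. Application was into the paddy water, 3 cm deep over the soil, on 2-leaf plants.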

[17] = test system: ducksalad (Heteranthera limosa); assay: Test B flooded paddy test; settings: Flood, 250 g ai/ha; 0 to 100 scale where 0 is no effect and 100 is complete control; 13 to 15 d
Procedure, shortened: as §2

rice (Oryra sativa) = assay: Test B flooded paddy test; settings: Flood, 250 g ai/ha; 0 to 100 scale where 0 is no effect and 100 is complete control; 13 to 15 d
Procedure, shortened: as §2

[18] = test system: sedge, umbrella (small-flower umbrella sedge, Cyperus difformis); assay: Test B flooded paddy test; settings: Flood, 250 g ai/ha; 0 to 100 scale where 0 is no effect and 100 is complete control; 13 to 15 d
Procedure, shortened: as §2

[19] = test system: barnyardgrass (Echinochloa crus-galli); assay: Test C flooded paddy test; settings: Flood; for Plant response rating, Barnyardgrass: 31 g ai/ha, scale 0 to 100 (0 no effect, 100 complete control), 13 to 15 d; for Plant response rating (scale of 0 to 100), Barnyardgrass: 0 is no effect, 100 is complete control
Procedure, shortened: (§3)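 Test compounds were dosed straight into the flood water of pots holding 2-leaf-stage plants, with water kept 3 cm above the soil. Greenhouse plants were scored visually against controls after 13 to 15 d, from 0 (no effect) to 100 (complete control).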

[20] = test system: ducksalad (Heteranthera limosa); assay: Test C flooded paddy test; settings: Flood; for Plant response rating, Ducksalad: 31 g ai/ha, scale 0 to 100 (0 no effect, 100 complete control), 13 to 15 d; for Plant response rating (scale of 0 to 100), Ducksalad: 0 is no effect, 100 is complete control
Procedure, shortened: as §3

rice (Oryza sativa) = assay: Test C flooded paddy test; settings: Flood; for Plant response rating, Rice: 31 g ai/ha, scale 0 to 100 (0 no effect, 100 complete control), 13 to 15 d; for Plant response rating (scale of 0 to 100), Rice: 0 is no effect, 100 is complete control
Procedure, shortened: as §3

[21] = test system: sedge, umbrella (small-flower umbrella sedge, Cyperus difformis); assay: Test C flooded paddy test; settings: Flood; for Plant response rating, Sedge, Umbrella: 31 g ai/ha, scale 0 to 100 (0 no effect, 100 complete control), 13 to 15 d; for Plant response rating (scale of 0 to 100), Sedge, Umbrella: 0 is no effect, 100 is complete control
Procedure, shortened: as §3

[22] = 125 g ai/ha, Preemergence, visual injury after approximately 10 d, 0 to 100 scale where 0 is no effect and 100 is complete control
[23] = 500 g ai/ha, preemergence, 0 to 100 scale, 0 = no effect, 100 = complete control
[24] = 125 g ai/ha, visual rating after approx. 10 d
[25] = 500 g ai/ha, visual injury, approx. 10 d
[26] = 125 g ai/ha, postemergence, visual rating after approx. 10 d, 0 to 100 scale (0 no effect, 100 complete control)
[27] = Postemergence, 500 g ai/ha, 0 to 100 scale where 0 is no effect and 100 is complete control
[28] = 500 g ai/ha, postemergence, visual injury, 0 to 100 scale (0 no effect, 100 complete control), approx. 10 d

CN1CC(c2cccc(C(F)(F)F)c2)C(C(=O)Nc2ccccc2C(F)(F)F)C1=O (centres unmarked) [Compound 638]
Plant response rating, Kochia (Kochia (Kochia scoparia) [1]; [22]): 0 | Plant response rating, Kochia (Kochia (Kochia scoparia) [1]; [23]): 20 | Plant response rating, Barnyardgrass [2, 22]: 90 | Plant response rating, Barnyardgrass [2, 23]: 90 | Plant response rating, Foxtail, Giant [3, 22]: 90 | Plant response rating, Foxtail, Giant [3, 23]: 100 | Plant response rating, Pigweed [4, 22]: 40 | Plant response rating, Pigweed [4, 23]: 60 | Plant response rating, Ragweed [5, 22]: 30 | Plant response rating, Ragweed [5, 23]: 60 | Plant response rating, Ryegrass, Italian [6, 22]: 30 | Plant response rating, Ryegrass, Italian [6, 23]: 90 | Plant response rating, Galium [7, 24]: 60 | Plant response rating, Galium [7, 25]: 60 | Plant response rating, Kochia (Kochia (Kochia scoparia) [8]; [24]): 20 | Plant response rating, Kochia (Kochia (Kochia scoparia) [8]; [25]): 40 | Plant response rating, Barnyardgrass [9, 26]: 90 | Plant response rating, Barnyardgrass [9, 27]: 90 | Plant response rating, Blackgrass [10, 26]: 50 | Plant response rating, Blackgrass [10, 27]: 70 | Plant response rating, Corn (corn (Zea mays); [26]): 70 | Plant response rating, Corn (corn (Zea mays); [27]): 80 | Plant response rating, Foxtail, Giant [11, 24]: 90 | Plant response rating, Foxtail, Giant [11, 25]: 90 | Plant response rating, Pigweed [12, 24]: 20 | Plant response rating, Pigweed [12, 25]: 50 | Plant response rating, Ragweed [13, 24]: 0 | Plant response rating, Ragweed [13, 25]: 0 | Plant response rating, Ryegrass, Italian [14, 24]: 30 | Plant response rating, Ryegrass, Italian [14, 25]: 40 | Plant response rating, Wheat [15, 24]: 60 | Plant response rating, Wheat [15, 25]: 70 | Plant response rating, Barnyardgrass [16]: 85 | Plant response rating, Ducksalad [17]: 100 | Plant response rating, Rice (rice (Oryra sativa)): 10 | Plant response rating, Sedge, Umbrella [18]: 0 | Plant response rating, Barnyardgrass [19]: 45 | Plant response rating (scale of 0 to 100), Barnyardgrass ([19]; 62 g ai/ha): 55 | Plant response rating (scale of 0 to 100), Barnyardgrass ([19]; 125 g ai/ha): 60 | Plant response rating (scale of 0 to 100), Barnyardgrass ([19]; 250 g ai/ha): 75 | Plant response rating, Ducksalad [20]: 0 | Plant response rating (scale of 0 to 100), Ducksalad ([20]; 62 g ai/ha): 40 | Plant response rating (scale of 0 to 100), Ducksalad ([20]; 125 g ai/ha): 60 | Plant response rating (scale of 0 to 100), Ducksalad ([20]; 250 g ai/ha): 75 | Plant response rating, Rice (rice (Oryza sativa)): 20 | Plant response rating (scale of 0 to 100), Rice (rice (Oryza sativa); 62 g ai/ha): 25 | Plant response rating (scale of 0 to 100), Rice (rice (Oryza sativa); 125 g ai/ha): 25 | Plant response rating (scale of 0 to 100), Rice (rice (Oryza sativa); 250 g ai/ha): 25 | Plant response rating, Sedge, Umbrella [21]: 0 | Plant response rating (scale of 0 to 100), Sedge, Umbrella ([21]; 62 g ai/ha): 0 | Plant response rating (scale of 0 to 100), Sedge, Umbrella ([21]; 125 g ai/ha): 0 | Plant response rating (scale of 0 to 100), Sedge, Umbrella ([21]; 250 g ai/ha): 0

CN1CC(c2cc(F)cc(F)c2)C(C(=O)Nc2ccccc2F)C1=O (centres unmarked) [Compound 643]
Plant response rating, Kochia (Kochia (Kochia scoparia) [1]; [22]): 0 | Plant response rating, Kochia (Kochia (Kochia scoparia) [1]; [23]): 40 | Plant response rating, Barnyardgrass [2, 22]: 90 | Plant response rating, Barnyardgrass [2, 23]: 90 | Plant response rating, Foxtail, Giant [3, 22]: 100 | Plant response rating, Foxtail, Giant [3, 23]: 100 | Plant response rating, Pigweed [4, 22]: 0 | Plant response rating, Pigweed [4, 23]: 20 | Plant response rating, Ragweed [5, 22]: 0 | Plant response rating, Ragweed [5, 23]: 20 | Plant response rating, Ryegrass, Italian [6, 22]: 20 | Plant response rating, Ryegrass, Italian [6, 23]: 90 | Plant response rating, Galium [7, 24]: 0 | Plant response rating, Galium [7, 25]: 50 | Plant response rating, Kochia (Kochia (Kochia scoparia) [8]; [24]): 0 | Plant response rating, Kochia (Kochia (Kochia scoparia) [8]; [25]): 20 | Plant response rating, Barnyardgrass [9, 26]: 90 | Plant response rating, Barnyardgrass [9, 28]: 90 | Plant response rating, Blackgrass [10, 26]: 50 | Plant response rating, Blackgrass [10, 28]: 60 | Plant response rating, Corn (corn (Zea mays); [26]): 0 | Plant response rating, Corn (corn (Zea mays); [28]): 70 | Plant response rating, Foxtail, Giant [11, 24]: 90 | Plant response rating, Foxtail, Giant [11, 25]: 90 | Plant response rating, Pigweed [12, 24]: 0 | Plant response rating, Pigweed [12, 25]: 0 | Plant response rating, Ragweed [13, 24]: 0 | Plant response rating, Ragweed [13, 25]: 30 | Plant response rating, Ryegrass, Italian [14, 24]: 30 | Plant response rating, Ryegrass, Italian [14, 25]: 30 | Plant response rating, Wheat [15, 24]: 0 | Plant response rating, Wheat [15, 25]: 50 | Plant response rating, Barnyardgrass [16]: 80 | Plant response rating, Ducksalad [17]: 100 | Plant response rating, Rice (rice (Oryra sativa)): 15 | Plant response rating, Sedge, Umbrella [18]: 0 | Plant response rating, Barnyardgrass [19]: 0 | Plant response rating (scale of 0 to 100), Barnyardgrass ([19]; 62 g ai/ha): 35 | Plant response rating (scale of 0 to 100), Barnyardgrass ([19]; 125 g ai/ha): 65 | Plant response rating (scale of 0 to 100), Barnyardgrass ([19]; 250 g ai/ha): 90 | Plant response rating, Ducksalad [20]: 20 | Plant response rating (scale of 0 to 100), Ducksalad ([20]; 62 g ai/ha): 50 | Plant response rating (scale of 0 to 100), Ducksalad ([20]; 125 g ai/ha): 75 | Plant response rating (scale of 0 to 100), Ducksalad ([20]; 250 g ai/ha): 100 | Plant response rating, Rice (rice (Oryza sativa)): 0 | Plant response rating (scale of 0 to 100), Rice (rice (Oryza sativa); 62 g ai/ha): 0 | Plant response rating (scale of 0 to 100), Rice (rice (Oryza sativa); 125 g ai/ha): 0 | Plant response rating (scale of 0 to 100), Rice (rice (Oryza sativa); 250 g ai/ha): 10 | Plant response rating, Sedge, Umbrella [21]: 0 | Plant response rating (scale of 0 to 100), Sedge, Umbrella ([21]; 62 g ai/ha): 0 | Plant response rating (scale of 0 to 100), Sedge, Umbrella ([21]; 125 g ai/ha): 0 | Plant response rating (scale of 0 to 100), Sedge, Umbrella ([21]; 250 g ai/ha): 0
